Assay results taken from patent US8614222B2, “Methods of preventing and treating low bone mass diseases” (The Trustees of Columbia University in the City of New York, priority 2008, dated 2013).

Experiments:
Type in all cases: in vivo
[1] = tested on: serum serotonin; assay: Serum serotonin levels in ovariectomized mice; details: OVX mice
Method: Six-week-old wild-type virgin female mice were purchased from the Jackson Laboratories and subjected to either bilateral ovariectomy or a sham operation after a few days of acclimatization to the animal facility post-arrival. Ovariectomy was performed under isofluorane anesthesia through dorsal, subrenal incision. In the first experiment, mice were treated from day 1 post-ovariectomy for 4 weeks with LP-533,401 (1, 10, 100 or 250 mg/kg/day) or vehicle. In the second experiment, mice were treated for 4 weeks from 2 to 6-weeks post-ovariectomy with LP-533,401 (250 mg/kg/day) or vehicle. In the third set of experiments, mice were treated for 6 weeks from 6 to 12-weeks post-ovariectomy with LP-533,401 (250 mg/kg/day) or vehicle. […]
Blood samples were collected from mice and rats through cardiac puncture under isoflurane anesthesia, kept on ice for 5 min, and centrifuged at 13,000 rpm for 10 min at 4° C. […] Serum serotonin levels were quantified by ELISA (Serotonin kit, Fitzgerald) while serotonin levels in brain regions were quantified by HPLC as described previously (Mann et al., 1992, Arch. Gen. Psychiatry 49:442-446). Serum levels of total deoxypyridinoline (DPD) cross-links was measured using the Merta tDPD kit (Quidel corp. Sandiago, Calif.) and Osteocalcin using Rat and Mouse Ocn IRMA kit.

[2] = tested on: ovariectomized rats; assay: Curative regimen in ovariectomized rats (histomorphometry, μCT, biomechanical testing); details: OVX rats
Method: Virgin female Sprague-Dawley rats (National Institute of Nutrition, Hyderabad, India) were obtained at 3 months of age and allowed to acclimate to the facility for 1 week before study initiation and surgical procedures. They were housed under a 12 hour:12 hour light:dark cycle and provided throughout the study with water and PMI (Purina Mills, Incorporated) Certified Rodent Laboratory Chow. Rats were subjected to either bilateral ovariectomy or a sham operation under isoflurane anesthesia. […] The rats were divided into two groups of sham-operated and ovariectomized animals and left untreated for 3 weeks to allow bone loss to occur. One group of sham and one group of ovariectomized rats (n=10/group) were killed as baseline controls to determine bone loss before the start of LP-533,401 or PTH administration. The remaining animals (n=5-10/group) received vehicle or LP-533,401 (250 mg/kg/day) by gavage, or recombinant human PTH (80 ug/kg) by daily subcutaneous (s.c.) injection for 4 weeks. The 80 ug/kg dose of PTH was selected as being optimal for reversal of ovariectomy-induced bone loss in rats based on previous studies, while the dose of LP-533,401 was selected based on the effective dose for bone loss-reversal observed in mice experiments. To label bone-forming surfaces, animals were injected s.c. with calcein (8 mg/kg) at 10 and 3 days before death. Animals were killed by an overdose of Isofluorane anesthesia. The right tibia and lumbar vertebra 2 (L2) were collected, cleaned of excess soft tissue, fixed overnight in 10% formalin and processed for μCT or histomorphometric analysis. The right femur and L3 were cleaned of excess tissue and stored at −20° C. prior to biomechanical testing.
(§1) Bone histomorphometry was performed as previously described (Duey et al., 2000, Cell 100:197-207; Takeda et al., 2002, Cell 111:305-317; Parfitt et al., 1987, J. Bone Miner. Res. 2:595-610). Briefly, lumbar vertebrae were dissected, fixed for 24 hr in 10% formalin, dehydrated in graded ethanol series, and embedded in methyl methacrylate resin according to standard protocols (Parfitt et al., 1987, J. Bone Miner. Res. 2:595-610). Von Kossa/Von Gieson staining was performed using 7 μm sections for bone volume over tissue volume (BV/TV) measurement. Bone formation rate (BFR) was analyzed by the calcein double-labeling method (Ducy et al., 2000, Cell 100:197-207). Calcein (Sigma Chemical Co., St. Louis, Mo.) was dissolved in calcein buffer (0.15 M NaCl, 2% NaHCO3) and injected twice at 0.125 mg/g body weight on day 1 and 4, and then mice were killed on day 6. Unstained 4 μm sections were used for bone formation rate (BFR) measurements. For the analysis of parameters of osteoblasts and osteoclasts, 4 μm sections were stained with toluidine blue and tartrate-resistant acid phosphatase (TRAP), respectively (2). Histomorphometric analyses were performed using the Osteomeasure Analysis System (Osteometrics, Atlanta, Ga.).
Trabecular bone architecture of proximal tibia was assessed using a micro computed tomography (μCT) system (VivaCT 40, SCANCO Medical AG, Bassersdorf, Switzerland). Tibia bone specimen was stabilized with gauze in a 2 ml centrifuge tube filled with 70% ethanol and fastened in the specimen holder of the μCT scanner. One hundred μCT slices, corresponding to a 1.05 mm region distal from the growth plate, were acquired at an isotropic spatial resolution of 10.5 μm. A global thresholding technique was applied to binarize gray-scale μCT images where the minimum between the bone and bone marrow peaks in the voxel gray value histogram was chosen as the threshold value. The trabecular bone compartment was segmented by a semi-automatic contouring method and subjected to a model-independent morphological analysis (Hildebrand et al., 1999, J. Bone Miner. Res. 14:1167-1174) by the standard software provided by the manufacture of the μCT scanner. […]

[3] = tested on: serum serotonin; assay: Serum serotonin levels in WT mice fed LP-533,401 (dose response)
Method: This decrease in serum serotonin levels reached 70% of control values when using 250 mg/kg of the compound while no change in brain serotonin content was observed (FIG. 15). […] Ovariectomized rodents present, as post-menopausal women do (Rodan & Martin, 2000, Science 289:1508-1514), a marked increase in bone resorption not compensated by a similar increase in bone formation.
Blood samples were collected from mice and rats through cardiac puncture under isoflurane anesthesia, kept on ice for 5 min, and centrifuged at 13,000 rpm for 10 min at 4° C. Serum samples were stored at −80° C. until hormonal analyses were performed. Serum serotonin levels were quantified by ELISA (Serotonin kit, Fitzgerald) while serotonin levels in brain regions were quantified by HPLC as described previously (Mann et al., 1992, Arch. Gen. Psychiatry 49:442-446). Serum levels of total deoxypyridinoline (DPD) cross-links was measured using the Merta tDPD kit (Quidel corp. Sandiago, Calif.) and Osteocalcin using Rat and Mouse Ocn IRMA kit.

[4] = tested on: naive mice; assay: Histomorphometric analysis of vertebrae of naive mice; details: naive mice (FIG. 20A: 250 mg/kg/day orally, 6 weeks)
Method: FIG. 20. (A) Histomorphometric analysis of vertebrae of 12 week-old mice that received vehicle or LP-533,401 (250 mg/kg/day, orally) for 6 weeks. (B-E) Gastrointestinal transit rate (B), colon motility (C), efficiency of gastric emptying (D) and blood coagulation rate (E) in 18 week-old ovariectomized (OVX) mice that received orally vehicle or indicated doses of LP-533,401 for 6 weeks.
as §1, with “For the analysis of parameters of osteoblasts and osteoclasts, 4 μm sections were stained with toluidine blue and tartrate-resistant acid phosphatase (TRAP), respectively (2). Histomorphometric analyses were performed using the Osteomeasure Analysis System (Osteometrics, Atlanta, Ga.).” left out

[5] = long bones, μCT, all doses tested
[6] = LP-533,401 250 mg/kg/day, PTH 80 μg/kg/day

## Nc1nc(OC(c2ccc(-c3cccc(F)c3)cc2)C(F)(F)F)cc(-c2ccc(C[C@H](N)C(=O)O)cc2)n1 (stereo partly drawn) [LP-533401, (2S)-2-amino-3-(4-(2-amino-6-(2,2,2-trifluoro-1-(3′-fluorobiphenyl-4-yl)ethoxy)pyrimidin-4-yl)phenyl)propanoic acid]
[1]; 250 mg/kg/day for 4 weeks from week 2 post-ovariectomy
  decrease of serum serotonin levels: 80%
[1]; day 1 to 28 post-ovariectomy
  serum serotonin levels: decreased
[2]
  number of osteoclasts per bone surface (OcS/BS) versus untreated ovariectomized rats: similar
[2]; given 3 or 12 weeks post-ovariectomy for 4 weeks, even at 25 mg/kg/day
  ovariectomy-induced bone loss, histomorphometric analysis of vertebra: fully rescued
[2]; long bones, μCT
  efficiency compared with PTH (80 μg/kg/day, s.c.): as efficient as the PTH regimen
[2]; [5]
  trabecular spacing (Tb.Sp*): reduced
  trabecular thickness (Tb.Th*): significantly increased
[2]; long bones, μCT, all doses tested (25, 100, 250 mg/kg/day)
  trabecular number (Tb.N*): significantly increased
[2]; vertebra
  bone formation rate: significant increase
  osteoblast number: significant increase
[2]; μCT
  bone mass in long bones versus vehicle-treated controls: increasing, in a dose-dependent manner
[2]; [6]
  decrease in cortical thickness at the femur mid-shaft: equally rescued
  maximal load (femur, vertebra): restored to values seen in sham-operated rats
  stiffness (femur, vertebra): restored to values seen in sham-operated rats
[3]; WT mice fed with increasing amounts
  serum serotonin levels, dose response: dose-dependent decrease
[3]; WT mice, 250 mg/kg LP-533,401
  decrease in serum serotonin levels: 70 % of control values
[4]
  increase in bone mass: also observed in naive mice
